# In patent US5395611A, “Phenolic amine depigmenting and antimelanoma agents” (The Governors of the University of Alberta, priority 1992, dated 1995):
# “Also recorded” adds a separate entry of the source.
# How the values were obtained:
# follicular melanocytes = settings: in words; cited from earlier work
# [1] = system: plasma monoamine oxidase (MAO); settings: in words, prior knowledge; cited from earlier work
# black guinea pig skin = settings: topical application, cited from earlier work
# [2] = Urinary excretion after i.p. injection (metabolic assay); assay type: in vivo, mice; settings: 5.2 mg/mouse
# Protocol: Fifteen mice randomly divided into three groups of five were injected i.p. with a test agent (300 mg/kg) dissolved in N saline solution. Group 1 were injected with 4-S-CAP, group 2 with N-Ac-4-S-CAP, group 3 were controls. The mice are kept in metabolic cages; their urine is collected 3, 8 and 24 hr after injection, and the 4-S-CAP and N-Ac-4-S-CAP content is measured by HPLC in a system consisting of a Waters 600E liquid chromatography, with a Bondapak C18 column (3.0×300 mm; particle size, 10 μm) and a Waters 460 electrochemical detector. Mobile phase: 0.1M potassium phosphate buffer, pH 2.1, containing 0.1 mM Na2 EDTA methanol, 80:20 (v/v); column temperature, 60° C.; flow rate 1.0 ml/min. Urine samples are hydrolysed with 0.1M HCl before assay, and the phenols are detected at 850 mV against an Ag/AgCl reference electrode.
compound,measurement,setting,value
"NCCSc1ccc(O)cc1 [4-S-CAP, 4-S-cysteaminylphenol, reference compound]",Effect on albino follicles,follicular melanocytes,no effect on the albino follicles
same,Effect on black hair follicles / black hair,follicular melanocytes,demonstrated cytotoxicity in the depigmentation of black hair follicles; also recorded: depigmentation of black hair as manifested by loss of functioning melanocytes
same,Substrate for plasma MAO (converted into aldehyde form),[1],"substrate for monoamineoxidase (MAO); also recorded: substrate not only for tyrosinase, but also for plasma monoamineoxidase (MAO)"
same,Inflammatory changes of the skin,black guinea pig skin; guinea pigs,inflammatory changes of the skin of the guinea pigs was prominent
same,Depigmentation of black guinea pig skin,black guinea pig skin,demonstrated depigmenting properties
same,"Urinary excretion of unchanged compound, amount",[2]; 3 h after i.p. injection,0.399 ± 0.018 mg
same,"Urinary excretion of unchanged compound, amount",[2]; 8 h after i.p. injection,0.443 ± 0.023 mg
same,"Urinary excretion of unchanged compound, amount",[2]; 24 h after i.p. injection,0.458 ± 0.021 mg
same,dose excreted at 3 h,"[2]; urine, ip, 300 mg/kg, 3 h after i.p. injection, read-out: Urinary excretion of unchanged compound, % of dose",7.7%
same,dose excreted at 8 h,"[2]; urine, ip, 300 mg/kg, 8 h after i.p. injection, read-out: Urinary excretion of unchanged compound, % of dose",8.5%
same,dose excreted at 24 h,"[2]; urine, ip, 300 mg/kg, 24 h after i.p. injection, read-out: Urinary excretion of unchanged compound, % of dose",8.8%
